# Tests used:
# FLT3 (D835Y) = FLT3 (D835Y) (Homo sapiens, UniProt P36888, D835Y); experiment: In vitro kinase assay, recombinant FLT3 (D835Y); type: biochemical; details: 33P-ATP, 120 min
# Method: (§1) The kinase assays were performed with recombinant class III receptor tyrosine kinase family proteins. Briefly, proteins, freshly prepared substrates and ^33P-ATP (specific activity 0.01 μCi/μl final) were mixed in reaction buffer (20 mM HEPES pH 7.5, 10 mM MgCl2, 1 mM EGTA, 0.02% Brij35, 0.02 mg/ml BSA, 0.1 mM Na3VO4, 2 mM DTT) in the presence of DMSO as control or 5IN-1NH1s. The mixtures were reacted for 120 min at room temperature. Samples were transferred onto P81 ion exchange paper and filters were extensively washed with 0.75% phosphoric acid. The radioactivities were monitored. IC50 values were determined using GraphPad Prism software.
# as §1, with “Kinase” for “The kinase”, “FLT3, mutated FLT3-ITD and D835I mutant FLT3 kinases.” for “class III receptor tyrosine kinase family proteins.”, “compound (1289).” for “5IN-1NH1s.”
# FLT3 (ITD) = FLT3 (ITD) (Homo sapiens, UniProt P36888); experiment: In vitro kinase assay, recombinant FLT3 (ITD); type: biochemical; details: 33P-ATP, 120 min
# Method: as §1
# as §1, with “Kinase” for “The kinase”, “FLT3, mutated FLT3-ITD and D835I mutant FLT3 kinases.” for “class III receptor tyrosine kinase family proteins.”, “compound (1289).” for “5IN-1NH1s.”
# A2058 melanoma cells = experiment: MTS cell viability, A2058 melanoma cells; type: cell-based, human; details: 48 h, read-out: IC50 for 50% inhibition of viability
# Method: (§2) MTS assays were performed for cell viability. Human cancer cells were seeded in 96-well plates (2500 cells/well for solid tumors, 5000 cells/well for blood tumors), incubated overnight at 37 C in 5% CO2, and exposed to 5IN-1NH1 or 5IN-1NH1s in a dose-dependent manner for 48 h. See FIGS. 1A-1B, 2A-2B, 3, 4A-4B, and 6A-6B. Dimethyl sulfoxide (DMSO) was used as the vehicle control. Viable cell numbers were determined by tetrazolium conversion to its formazan dye and absorbance was measured at 490 nm using an automated ELISA plate reader. Each experiment was performed in quadruplicate. IC50 values were determined using CalcuSyn software (BIOSOFT®, Cambridge GB).
# ABL1 = ABL1 (Homo sapiens, UniProt P00519); experiment: Kinase profiling in vitro, ABL1; type: biochemical; details: recombinant ABL1, 33P-ATP, 120 min
# Method: as §1, with “recombinant” for “recombinant class III receptor tyrosine kinase family”
# FMS = FMS (Homo sapiens, UniProt P07333); experiment: In vitro kinase assay, recombinant FMS; type: biochemical; details: 33P-ATP, 120 min
# Sequence of FMS (P07333 20-972, species assumed): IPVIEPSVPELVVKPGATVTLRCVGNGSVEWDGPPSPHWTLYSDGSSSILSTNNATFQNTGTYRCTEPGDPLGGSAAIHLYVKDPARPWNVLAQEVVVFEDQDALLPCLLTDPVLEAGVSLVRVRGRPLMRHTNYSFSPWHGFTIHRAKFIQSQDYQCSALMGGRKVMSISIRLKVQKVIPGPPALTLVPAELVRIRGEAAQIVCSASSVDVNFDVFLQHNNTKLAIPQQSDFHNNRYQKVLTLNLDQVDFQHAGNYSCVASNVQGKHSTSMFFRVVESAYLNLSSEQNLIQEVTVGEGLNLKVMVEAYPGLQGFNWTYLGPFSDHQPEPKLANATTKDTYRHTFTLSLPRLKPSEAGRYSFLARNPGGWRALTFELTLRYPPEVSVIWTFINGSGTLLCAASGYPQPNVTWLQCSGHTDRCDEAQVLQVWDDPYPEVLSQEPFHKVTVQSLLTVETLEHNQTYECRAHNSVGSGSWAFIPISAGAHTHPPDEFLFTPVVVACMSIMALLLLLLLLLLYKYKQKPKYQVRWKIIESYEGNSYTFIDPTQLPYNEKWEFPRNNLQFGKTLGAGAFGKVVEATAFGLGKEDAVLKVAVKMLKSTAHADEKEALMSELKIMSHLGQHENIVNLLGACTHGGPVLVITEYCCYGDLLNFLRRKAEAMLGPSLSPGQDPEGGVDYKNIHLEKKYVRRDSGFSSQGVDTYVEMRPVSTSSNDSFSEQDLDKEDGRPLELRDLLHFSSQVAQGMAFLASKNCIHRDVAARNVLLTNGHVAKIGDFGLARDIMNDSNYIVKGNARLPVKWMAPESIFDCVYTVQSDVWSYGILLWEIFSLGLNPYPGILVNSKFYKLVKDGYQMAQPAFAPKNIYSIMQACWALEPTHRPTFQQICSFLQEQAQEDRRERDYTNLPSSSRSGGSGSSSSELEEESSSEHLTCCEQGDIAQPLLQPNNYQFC
# Method: (§3) Compound (1289) inhibits activities of FMS, PDGFR α, PDGFR β and c-KIT in vitro. The kinase assays were performed with recombinant FMS, PDGFR α, PDGFR β and c-KIT proteins. Briefly, proteins, freshly prepared substrates and ^33P-ATP (specific activity 0.01 μCi/μl final) were mixed in reaction buffer (20 mM HEPES pH 7.5, 10 mM MgCl2, 1 mM EGTA, 0.02% Brij35, 0.02 mg/ml BSA, 0.1 mM Na3VO4, 2 mM DTT) in the presence of DMSO as control or compound (1289). The mixtures were reacted for 120 min at room temperature. Samples were transferred onto P81 ion exchange paper and filters were extensively washed with 0.75% phosphoric acid. The radioactivities were monitored.
# as §1
# PDGFR β = PDGFR β (Homo sapiens, UniProt P09619); experiment: In vitro kinase assay, recombinant PDGFR β; type: biochemical; details: 33P-ATP, 120 min
# Sequence of PDGFR β (P09619 33-1106, species assumed): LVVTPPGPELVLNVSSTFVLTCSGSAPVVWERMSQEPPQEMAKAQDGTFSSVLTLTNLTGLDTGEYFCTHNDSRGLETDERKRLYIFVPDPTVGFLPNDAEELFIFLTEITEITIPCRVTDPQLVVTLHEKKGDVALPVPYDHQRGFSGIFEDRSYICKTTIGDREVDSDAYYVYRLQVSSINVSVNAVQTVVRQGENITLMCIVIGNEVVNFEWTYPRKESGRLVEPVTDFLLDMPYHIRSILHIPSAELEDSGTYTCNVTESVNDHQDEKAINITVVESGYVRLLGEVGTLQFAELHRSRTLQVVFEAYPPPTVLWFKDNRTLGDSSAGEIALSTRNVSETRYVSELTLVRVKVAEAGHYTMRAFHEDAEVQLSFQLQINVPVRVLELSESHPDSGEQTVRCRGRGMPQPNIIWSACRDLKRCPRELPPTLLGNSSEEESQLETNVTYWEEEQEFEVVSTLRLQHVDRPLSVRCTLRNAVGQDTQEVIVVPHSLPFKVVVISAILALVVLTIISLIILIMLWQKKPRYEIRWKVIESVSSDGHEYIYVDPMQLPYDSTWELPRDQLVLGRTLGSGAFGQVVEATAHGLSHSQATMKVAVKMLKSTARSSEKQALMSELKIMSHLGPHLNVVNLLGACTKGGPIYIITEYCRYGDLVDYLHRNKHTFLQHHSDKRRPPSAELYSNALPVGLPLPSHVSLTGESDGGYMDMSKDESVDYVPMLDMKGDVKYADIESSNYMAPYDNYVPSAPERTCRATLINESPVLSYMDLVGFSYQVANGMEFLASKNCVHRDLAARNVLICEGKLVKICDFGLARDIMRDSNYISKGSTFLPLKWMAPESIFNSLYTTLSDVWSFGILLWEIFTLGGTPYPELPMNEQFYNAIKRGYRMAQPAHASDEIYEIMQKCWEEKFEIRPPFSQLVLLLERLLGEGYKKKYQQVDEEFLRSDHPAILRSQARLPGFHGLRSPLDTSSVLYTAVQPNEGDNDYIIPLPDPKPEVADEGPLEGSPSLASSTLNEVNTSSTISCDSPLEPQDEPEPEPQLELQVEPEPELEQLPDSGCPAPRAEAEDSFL
# Method: as §3, §1
# [1] = tested on: MDA-MB-231 breast cancer cells; experiment: MTS cell viability, MDA-MB-231 breast cancer cells; type: cell-based, human; details: 48 h, read-out: IC50 for 50% inhibition of viability
# Method: as §2
# Aurora A = Aurora A (Homo sapiens, UniProt O14965); experiment: Kinase profiling in vitro, Aurora A; type: biochemical; details: recombinant Aurora A, 33P-ATP, 120 min
# Method: as §1, with “recombinant” for “recombinant class III receptor tyrosine kinase family”
# MV4-11 AML cells = experiment: MTS cell viability, MV4-11 AML cells (FLT3-ITD); type: cell-based, human; details: 48 h, read-out: IC50 for 50% inhibition of viability
# Method: as §2
# (§4) Compound (1289) inhibits viabilities of MV4-11 and MOLM13 AML cells that harbor an internal tandem duplication (ITD) mutation. MTS assays were performed for cell viability. Human MV4-11 and MOLM13 AML cells (5000/well) were seeded in 96-well plates, incubated overnight at 37° C. in 5% CO2, and exposed to compound (1289) in a dose-dependent manner for 48 h. Dimethyl sulfoxide (DMSO) was used as the vehicle control. Viable cell numbers were determined by tetrazolium conversion to its formazan dye and absorbance was measured at 490 nm using an automated ELISA plate reader. Each experiment was performed in quadruplicate. IC50 values were determined using CalcuSyn software.
# ABL1 (T315I) = ABL1 (T315I) (Homo sapiens, UniProt P00519, T315I); experiment: Kinase profiling in vitro, ABL1 (T315I); type: biochemical; details: recombinant ABL1 (T315I), 33P-ATP, 120 min
# Method: as §1, with “recombinant” for “recombinant class III receptor tyrosine kinase family”
# A549 lung cancer cells = experiment: MTS cell viability, A549 lung cancer cells; type: cell-based, human; details: 48 h, read-out: IC50 for 50% inhibition of viability
# Method: as §2
# CDK2/cyclin A = CDK2/cyclin A (Homo sapiens, UniProt P24941); experiment: Kinase profiling in vitro, CDK2/cyclin A; type: biochemical; details: recombinant CDK2/cyclin A, 33P-ATP, 120 min
# Method: as §1, with “recombinant” for “recombinant class III receptor tyrosine kinase family”
# KDR/vEGFR2 = KDR/vEGFR2 (Homo sapiens, UniProt P35968); experiment: Kinase profiling in vitro, KDR/vEGFR2; type: biochemical; details: recombinant KDR/vEGFR2, 33P-ATP, 120 min
# Method: as §1, with “recombinant” for “recombinant class III receptor tyrosine kinase family”
# [2] = tested on: SKOV3 ovarian cancer cells; experiment: MTS cell viability, SKOV3 ovarian cancer cells; type: cell-based, human; details: 48 h, read-out: IC50 for 50% inhibition of viability
# Method: as §2
# GSK3β = GSK3β (Homo sapiens, UniProt P49841); experiment: Kinase profiling in vitro, GSK3β; type: biochemical; details: recombinant GSK3β, 33P-ATP, 120 min
# Method: as §1, with “recombinant” for “recombinant class III receptor tyrosine kinase family”
# FLT3 [3] = experiment: In vitro kinase assay, recombinant FLT3; type: biochemical; details: recombinant class III receptor tyrosine kinase family proteins
# Method: as §1
# as §1, with “Kinase” for “The kinase”, “FLT3, mutated FLT3-ITD and D835I mutant FLT3 kinases.” for “class III receptor tyrosine kinase family proteins.”, “compound (1289).” for “5IN-1NH1s.”
# FLT3 [4] = molecular target: FLT3 (Homo sapiens, UniProt P36888); experiment: In vitro kinase assay, recombinant FLT3; type: biochemical; details: recombinant FLT3, 33P-ATP, 120 min
# Method: as §1
# as §1, with “Kinase” for “The kinase”, “FLT3, mutated FLT3-ITD and D835I mutant FLT3 kinases.” for “class III receptor tyrosine kinase family proteins.”, “compound (1289).” for “5IN-1NH1s.”
# KCL22 CML cells = experiment: MTS cell viability, KCL22 CML cells; type: cell-based, human; details: 48 h, read-out: IC50 for 50% inhibition of viability
# Method: as §2
# AKT1 = AKT1 (Homo sapiens, UniProt P31749); experiment: Kinase profiling in vitro, AKT1; type: biochemical; details: recombinant AKT1, 33P-ATP, 120 min
# Sequence of AKT1 (P31749 whole entry, species assumed): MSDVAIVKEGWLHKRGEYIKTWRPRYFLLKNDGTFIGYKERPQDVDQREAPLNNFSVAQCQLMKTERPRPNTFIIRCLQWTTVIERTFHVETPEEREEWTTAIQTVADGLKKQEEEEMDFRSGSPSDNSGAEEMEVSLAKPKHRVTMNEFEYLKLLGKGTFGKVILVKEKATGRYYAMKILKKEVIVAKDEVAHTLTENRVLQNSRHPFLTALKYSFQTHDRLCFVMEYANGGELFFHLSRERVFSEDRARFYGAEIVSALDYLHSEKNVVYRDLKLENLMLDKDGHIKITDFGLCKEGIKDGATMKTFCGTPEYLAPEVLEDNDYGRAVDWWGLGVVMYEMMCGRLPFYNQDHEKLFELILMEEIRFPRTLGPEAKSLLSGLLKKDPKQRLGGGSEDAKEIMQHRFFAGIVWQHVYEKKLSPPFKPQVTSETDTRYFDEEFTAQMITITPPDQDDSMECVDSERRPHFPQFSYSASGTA
# Method: as §1, with “recombinant” for “recombinant class III receptor tyrosine kinase family”
# [5] = tested on: DU145 prostate cancer cells; experiment: MTS cell viability, DU145 prostate cancer cells; type: cell-based, human; details: 48 h, read-out: IC50 for 50% inhibition of viability
# Method: as §2
# PDGFR α = PDGFR α (Homo sapiens, UniProt P16234); experiment: In vitro kinase assay, recombinant PDGFR α; type: biochemical; details: 33P-ATP, 120 min
# Sequence of PDGFR α (P16234 24-1089, species assumed): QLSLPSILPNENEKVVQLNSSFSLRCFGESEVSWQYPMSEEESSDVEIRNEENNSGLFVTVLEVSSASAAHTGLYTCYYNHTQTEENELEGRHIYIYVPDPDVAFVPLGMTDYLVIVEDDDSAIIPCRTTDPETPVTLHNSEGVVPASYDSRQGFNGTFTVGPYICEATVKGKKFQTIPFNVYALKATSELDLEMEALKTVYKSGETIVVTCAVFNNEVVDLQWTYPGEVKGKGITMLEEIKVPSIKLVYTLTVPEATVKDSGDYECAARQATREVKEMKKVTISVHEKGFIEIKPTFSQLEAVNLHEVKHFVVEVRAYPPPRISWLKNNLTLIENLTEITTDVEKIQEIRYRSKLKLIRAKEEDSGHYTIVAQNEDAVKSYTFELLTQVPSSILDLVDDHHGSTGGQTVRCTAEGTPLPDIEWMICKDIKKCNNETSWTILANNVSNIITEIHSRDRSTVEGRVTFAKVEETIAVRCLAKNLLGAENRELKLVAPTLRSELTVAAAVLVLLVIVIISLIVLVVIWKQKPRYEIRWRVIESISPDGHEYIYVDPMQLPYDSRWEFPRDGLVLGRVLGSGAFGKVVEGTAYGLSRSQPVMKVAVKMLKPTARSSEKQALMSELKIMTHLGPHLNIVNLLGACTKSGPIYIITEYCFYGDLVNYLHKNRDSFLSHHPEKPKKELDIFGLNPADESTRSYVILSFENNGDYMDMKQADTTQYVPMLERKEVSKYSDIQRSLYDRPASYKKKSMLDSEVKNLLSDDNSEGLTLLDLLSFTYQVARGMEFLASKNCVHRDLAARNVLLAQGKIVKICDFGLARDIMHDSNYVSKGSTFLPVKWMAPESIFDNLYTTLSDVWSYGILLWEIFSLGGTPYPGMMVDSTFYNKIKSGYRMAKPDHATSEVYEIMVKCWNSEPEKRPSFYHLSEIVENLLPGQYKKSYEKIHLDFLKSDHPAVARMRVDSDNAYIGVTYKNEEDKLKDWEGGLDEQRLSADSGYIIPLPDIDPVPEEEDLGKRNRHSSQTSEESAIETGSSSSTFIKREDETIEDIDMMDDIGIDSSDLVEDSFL
# Method: as §3, §1
# IGF1R = IGF1R (Homo sapiens, UniProt P08069); experiment: Kinase profiling in vitro, IGF1R; type: biochemical; details: recombinant IGF1R, 33P-ATP, 120 min
# Method: as §1, with “recombinant” for “recombinant class III receptor tyrosine kinase family”
# BRAF = BRAF (Homo sapiens, UniProt P15056); experiment: Kinase profiling in vitro, BRAF; type: biochemical; details: recombinant BRAF, 33P-ATP, 120 min
# Method: as §1, with “recombinant” for “recombinant class III receptor tyrosine kinase family”
# MOLM13 AML cells = experiment: MTS cell viability, MOLM13 AML cells (FLT3-ITD); type: cell-based, human; details: 48 h, read-out: IC50 for 50% inhibition of viability
# Method: as §2, §4
# JAK2 = JAK2 (Homo sapiens, UniProt O60674); experiment: Kinase profiling in vitro, JAK2; type: biochemical; details: recombinant JAK2, 33P-ATP, 120 min
# Sequence of JAK2 (O60674 whole entry, species assumed): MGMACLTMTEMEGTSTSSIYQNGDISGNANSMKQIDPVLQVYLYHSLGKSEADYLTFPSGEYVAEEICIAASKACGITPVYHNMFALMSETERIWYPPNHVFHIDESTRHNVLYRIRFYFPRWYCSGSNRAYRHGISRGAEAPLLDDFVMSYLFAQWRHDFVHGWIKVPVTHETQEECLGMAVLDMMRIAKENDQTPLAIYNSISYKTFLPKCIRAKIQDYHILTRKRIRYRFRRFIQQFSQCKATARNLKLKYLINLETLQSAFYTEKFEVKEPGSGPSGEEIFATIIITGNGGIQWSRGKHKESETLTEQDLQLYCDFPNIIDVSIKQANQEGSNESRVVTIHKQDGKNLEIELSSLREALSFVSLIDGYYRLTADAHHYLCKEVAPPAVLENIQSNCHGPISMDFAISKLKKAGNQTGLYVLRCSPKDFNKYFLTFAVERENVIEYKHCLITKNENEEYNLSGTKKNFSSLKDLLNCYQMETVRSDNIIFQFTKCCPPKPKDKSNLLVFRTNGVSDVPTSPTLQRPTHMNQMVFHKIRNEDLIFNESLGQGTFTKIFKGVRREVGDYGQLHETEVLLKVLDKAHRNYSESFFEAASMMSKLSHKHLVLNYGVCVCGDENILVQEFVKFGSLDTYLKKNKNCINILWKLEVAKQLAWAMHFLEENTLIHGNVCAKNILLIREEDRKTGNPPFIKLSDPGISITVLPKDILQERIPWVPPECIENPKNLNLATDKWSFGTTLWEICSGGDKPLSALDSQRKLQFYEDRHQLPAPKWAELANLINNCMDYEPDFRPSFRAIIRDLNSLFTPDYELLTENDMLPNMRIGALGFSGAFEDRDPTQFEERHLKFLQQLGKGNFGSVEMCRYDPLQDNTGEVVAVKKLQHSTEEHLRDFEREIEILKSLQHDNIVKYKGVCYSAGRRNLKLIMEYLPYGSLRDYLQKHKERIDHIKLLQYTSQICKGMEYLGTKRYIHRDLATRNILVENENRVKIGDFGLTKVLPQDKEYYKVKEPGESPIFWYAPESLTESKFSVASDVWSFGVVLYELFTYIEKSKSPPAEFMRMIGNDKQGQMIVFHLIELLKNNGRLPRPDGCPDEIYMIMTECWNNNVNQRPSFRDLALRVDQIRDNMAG
# Method: as §1, with “recombinant” for “recombinant class III receptor tyrosine kinase family”
# c-Src = c-Src (Homo sapiens, UniProt P12931); experiment: Kinase profiling in vitro, c-Src; type: biochemical; details: recombinant c-Src, 33P-ATP, 120 min
# Method: as §1, with “recombinant” for “recombinant class III receptor tyrosine kinase family”
# c-KIT = c-KIT (Homo sapiens, UniProt P10721); experiment: In vitro kinase assay, recombinant c-KIT; type: biochemical; details: 33P-ATP, 120 min
# Method: as §3, §1
# [6] = tested on: T315I ABL1 mutant KCL22 CML cells; experiment: MTS cell viability, T315I ABL1 mutant KCL22 CML cells; type: cell-based, human; details: T315I ABL1 mutant KCL22 CML cells, MTS, 48 h; read-out: IC50 for 50% inhibition of viability
# Method: as §2
# Human DU145 prostate cancer, A2058 melanoma, SKOV3 ovarian cancer and T315I ABL1 mutant KCL22 CML cells were seeded in 96-well plates (2500 cells/well for solid tumors, 5000 cells/well for blood tumors), incubated overnight at 37° C. in 5% CO2, and exposed to 5IN-6NC1, 5IN-1NH1, 5IN-6NNC6, or 5IN-6NNC7 in a dose-dependent manner for 48 h. Dimethyl sulfoxide (DMSO) was used as the vehicle control. Viable cell numbers were determined by tetrazolium conversion to its formazan dye and absorbance was measured at 490 nm using an automated ELISA plate reader. Each experiment was performed in quadruplicate. IC50 values were determined using CalcuSyn software.
smiles,measurement,setting,value
CNCCO/N=C1/C(=C2/C(=O)Nc3ccc(Br)cc32)Nc2ccccc21 [5IN-1NH1s],IC50,FLT3 (D835Y),< 0.5 nM
same,IC50,FLT3 (ITD),1.09 nM
same,IC50,A2058 melanoma cells,88.9 nM
same,IC50,ABL1,434 nM
same,IC50,FMS,16 nM
same,IC50,PDGFR β,9.1 nM
same,IC50,[1],33 nM
same,IC50,Aurora A,217 nM
same,IC50,MV4-11 AML cells,3.7 nM
same,IC50,ABL1 (T315I),3400 nM
same,IC50,A549 lung cancer cells,46.1 nM
same,IC50,CDK2/cyclin A,1.08 nM
same,IC50,KDR/vEGFR2,245 nM
same,IC50,[2],169 nM
same,IC50,GSK3β,1.18 nM
same,selectivity for FLT3 and mutated FLT3 kinases within class III receptor tyrosine kinase family,FLT3 [3],selectively inhibits
same,IC50,FLT3 [4],1.39 nM
same,IC50,KCL22 CML cells,72.8 nM
same,IC50,AKT1,327 nM
same,IC50,[5],44.7 nM
same,IC50,PDGFR α,72.2 nM
same,IC50,IGF1R,31.8 nM
same,IC50,BRAF,7410 nM
same,IC50,MOLM13 AML cells,7.5 nM
same,IC50,JAK2,169 nM
same,IC50,c-Src,13.8 nM
same,IC50,c-KIT,321 nM
same,IC50,[6],52.7 nM

# — US11964941B2, “5-Bromo-indirubins” (City of Hope, priority 2014, dated 2024)
